Test results: patent publication US10925876B2, “Methods for using triazolo-pyrazinyl soluble guanylate cyclase activators in fibrotic disorders” (Merck Sharp & Dohme Corp., priority 2016, dated 2021)

Molecular target: T1, sGC α1/β1 heterodimer (Homo sapiens, UniProt Q02108+Q02153)
T1 construct: expressed in transfected cells
T1 sequence (Q02108 1-690): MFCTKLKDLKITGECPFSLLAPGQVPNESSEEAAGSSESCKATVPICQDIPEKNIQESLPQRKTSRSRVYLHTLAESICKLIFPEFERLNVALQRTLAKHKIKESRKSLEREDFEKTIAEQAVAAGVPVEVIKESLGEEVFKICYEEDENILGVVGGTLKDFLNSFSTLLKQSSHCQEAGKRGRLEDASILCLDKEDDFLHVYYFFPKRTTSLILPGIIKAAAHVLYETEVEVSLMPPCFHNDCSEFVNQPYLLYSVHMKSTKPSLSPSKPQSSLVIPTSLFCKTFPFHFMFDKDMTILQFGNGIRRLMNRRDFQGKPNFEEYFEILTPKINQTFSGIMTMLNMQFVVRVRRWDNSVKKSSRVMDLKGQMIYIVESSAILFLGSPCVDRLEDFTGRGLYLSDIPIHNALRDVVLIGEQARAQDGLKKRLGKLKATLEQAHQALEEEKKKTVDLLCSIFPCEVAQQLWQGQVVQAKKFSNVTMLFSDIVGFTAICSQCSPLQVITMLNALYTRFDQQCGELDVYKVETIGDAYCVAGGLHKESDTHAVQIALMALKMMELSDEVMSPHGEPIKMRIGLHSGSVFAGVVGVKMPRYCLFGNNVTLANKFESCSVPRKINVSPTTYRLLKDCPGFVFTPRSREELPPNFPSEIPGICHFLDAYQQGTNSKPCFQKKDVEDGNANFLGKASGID
T1 sequence (Q02153 1-619): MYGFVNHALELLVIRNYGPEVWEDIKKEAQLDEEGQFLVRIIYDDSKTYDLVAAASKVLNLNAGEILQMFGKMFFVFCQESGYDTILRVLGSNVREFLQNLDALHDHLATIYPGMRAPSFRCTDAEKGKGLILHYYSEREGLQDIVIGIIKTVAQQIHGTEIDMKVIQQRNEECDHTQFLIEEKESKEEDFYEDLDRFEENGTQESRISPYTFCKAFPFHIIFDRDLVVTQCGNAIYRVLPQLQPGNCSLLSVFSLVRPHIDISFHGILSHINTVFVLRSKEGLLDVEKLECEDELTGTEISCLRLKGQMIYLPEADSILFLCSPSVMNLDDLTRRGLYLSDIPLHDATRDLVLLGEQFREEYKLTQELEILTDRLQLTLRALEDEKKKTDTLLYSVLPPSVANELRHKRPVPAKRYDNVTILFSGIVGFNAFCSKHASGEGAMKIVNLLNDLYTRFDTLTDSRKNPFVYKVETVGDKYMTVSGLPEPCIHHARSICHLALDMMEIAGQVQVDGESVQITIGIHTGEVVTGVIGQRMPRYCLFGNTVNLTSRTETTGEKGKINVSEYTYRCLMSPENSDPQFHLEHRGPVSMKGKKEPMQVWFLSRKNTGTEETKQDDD
Assay: Cell-Based sGC Functional Assay (CASA Assay), cGMP generation in CHO-K1/sGC cells
Details: maximum cGMP production of Compound A set to 100% activation, read-out: % Act. (percent activation relative to Compound A)
From the text: sGC is a heme-containing enzyme that converts GTP to secondary messenger cGMP. Increases in cGMP levels affect several physiological processes including vasorelaxation through multiple downstream pathways. […] Heme-dependent activators (HDAs) preferentially activate sGC containing a ferrous heme group. To determine the effect of sGC activators on enzyme activity, the CASA assay was developed to monitor the generation of cGMP in a cell line that stably expresses the heterodimeric sGC protein.
A CHO-K1 cell line stably expressing the sGC α1/β1 heterodimer was generated using a standard transfection protocol. CHO-K1 cells were transfected with plasmids pIREShyghsGCα1 and pIRESneo-hsGCβ1 simultaneously using FUGENE reagent. Clones that stably express both subunits were selected with hygromycin and neomycin for ˜2 weeks. Clone #7 was chosen for the assay and was designated CHO-K1/sGC. CHO-K1/sGC cells were maintained in F-K12 medium containing 10% heat-inactivated Fetal Bovine Serum (FBS), 100 μg/mL penicillin/streptomycin, 0.5 mg/mL hygromycin and 0.25 mg/mL G418. The cells were then cryopreserved in LN2. On the day of the assay, cells thawed and resuspended in EBSS Assay Buffer (Sigma, E3024) supplemented with 5 mM MgCl2, 10 mM HEPES (4-(2-hydroxyethyl)piperazine-1-ethanesulfonic acid) and 0.05% BSA (bovine serum albumin) (EAB) and cell density was then adjusted to 4×10^5/mL with EAB. IBMX (3-isobutyl-1-methylxanthin, 0.5 mM) was added to inhibit degradation of cGMP. Compounds were diluted from DMSO stock solutions and added to the assay at a final DMSO concentration of 2.5%. Cells were incubated with compounds in the presence and absence of 1 μM of Diethylenetriamine/nitric oxide adduct (DETA-NO; Sigma, 17018) for 1 hr at 37° C. At the end of the incubation period, the reaction was terminated and the cells were lysed with the detection reagents from Cisbio Kits. The level of intracellular cGMP was determined using an HTRF-based assay kit (CisBio, 62GM2PEC), which detects the displacement of a fluorescence labeled cGMP from its specific antibody. The cGMP produced by test compounds was directly compared to the maximum cGMP production (this value was set to equal 100% activation.) of the published sGC-HDA Compound A:
[drawing 298] (Example 1 in WO 2010/065275, published Jun. 10, 2010). The test compounds' activities were then expressed as a percentage of Compound A, the standard in every experiment. This percent activation was calculated either in the presence or absence of DETA-NO which was then plotted. IP and maximum fold induction was derived using ADA analysis software for 4P fit.

Structure (SMILES) | Emax
CC1(c2ccc(F)cn2)C(=O)Nc2nc(-c3cn4ncnc4c(CCCC(F)(F)F)n3)ncc21 (stereo not drawn) [Example 176B, 5-(5-fluoropyridin-2-yl)-5-methyl-2-(8-(4,4,4-trifluorobutyl)-[1,2,4]triazolo[1,5-a]pyrazin-6-yl)-5H-pyrrolo[2,3-d]pyrimidin-6(7H)-one] | 166%
CCCc1nc(-c2nc(N)c3c(n2)NC(=O)[C@@]3(C)c2ccc(F)cc2)cn2nc(C)nc12 [Example 91A, (S)-4-amino-5-(4-fluorophenyl)-5-methyl-2-(2-methyl-8-propyl-[1,2,4]triazolo[1,5-a]pyrazin-6-yl)-5,7-dihydro-6H-pyrrolo[2,3-d]pyrimidin-6-one] | 105%
CCCCc1nc(-c2nc(N)c3c(n2)NC(=O)C3(C)c2ccc(C)cn2)cn2ncnc12 (stereo not drawn) [Example 71B, 4-amino-2-(8-butyl-[1,2,4]triazolo[1,5-a]pyrazin-6-yl)-5-methyl-5-(5-methylpyridin-2-yl)-5H-pyrrolo[2,3-d)pyrimidin-6(7H)-one] | 118%
CC1(c2ccc(Cl)cn2)C(=O)Nc2nc(-c3cn4ncnc4c(CCC(F)(F)C(F)(F)F)n3)ncc21 (stereo not drawn) [Example 175A, 5-(5-chloropyridin-2-yl)-5-methyl-2-(8-(3,3,4,4,4-pentafluorobutyl)-[1,2,4]triazolo[1,5-a]pyrazin-6-yl)-5H-pyrrolo[2,3-d]pyrimidin-6(7H)-one] | 115%
CCCc1nc(-c2nc(N)c3c(n2)NC(=O)C3(C)c2ccc(Cl)c(F)c2)cn2ncnc12 (stereo not drawn) [Example 55B] | 99%
CCCCc1nc(-c2nc(N)c3c(n2)NC(=O)C3(C)c2ccc(Cl)c(F)c2)cn2ncnc12 (stereo not drawn) [Example 62B, 4-amino-2-(8-butyl-[1,2,4]triazolo[1,5-a]pyrazin-6-yl)-5-(4-chloro-3-fluorophenyl)-5-methyl-5H-pyrrolo[2,3-d]pyrimidin-6(7H)-one] | 267%
Cc1nnc(C2(C)C(=O)Nc3nc(-c4cn5ncnc5c(CCC(F)(F)C(F)(F)F)n4)nc(N)c32)o1 (single isomer, unassigned) [Example 97B, 4-Amino-5-methyl-5-(5-methyl-1,3,4-oxadiazol-2-yl)-2-(8-(3,3,4,4,4-pentafluorobutyl)-[1,2,4]triazolo[1,5-a]pyrazin-6-yl)-5H-pyrrolo[2,3-d]pyrimidin-6(7H)-one] | 106%
Cc1nc(C2(C)C(=O)Nc3nc(-c4cn5ncnc5c(CCCC(F)(F)F)n4)nc(N)c32)ccc1C(F)(F)F (racemic) [Example 49B, 4-amino-5-methyl-5-(6-methyl-5-(trifluoromethyl)pyridin-2-yl)-2-(8-(4,4,4-trifluorobutyl)-[1,2,4]triazolo[1,5-a]pyrazin-6-yl)-5H-pyrrolo[2,3-d]pyrimidin-6(7H)-one] | 127%
Nc1nc(-c2cn3ncnc3c(CCCC(F)(F)F)n2)nc2c1C(c1nnc(C3(F)CC3)o1)(C1CC1)C(=O)N2 (stereo not drawn) [Example 108A, 4-amino-5-cyclopropyl-5-(5-(1-fluorocyclopropyl)-1,3,4-oxadiazol-2-yl)-2-(8-(4,4,4-trifluorobutyl)-[1,2,4]triazolo[1,5-a]pyrazin-6-yl)-5H-pyrrolo[2,3-d]pyrimidin-6(7H)-one] | 107%
CCCCc1nc(-c2nc(N)c3c(n2)NC(=O)C3(C)c2ccc(Cl)cc2)cn2ncnc12 (stereo not drawn) [Example 63A, 4-amino-2-(8-butyl-[1,2,4]triazolo[1,5-a]pyrazin-6-yl)-5-(4-chlorophenyl)-5-methyl-5H-pyrrolo[2,3-d]pyrimidin-6(7H)-one] | 187%
CC1(c2ccccc2)C(=O)Nc2nc(-c3cn4ncnc4c(CCCC(F)(F)F)n3)nc(N)c21 (stereo not drawn) [Example 37B, 4-amino-5-methyl-5-phenyl-2-(8-(4,4,4-trifluorobutyl)-[1,2,4]triazolo[1,5-a]pyrazin-6-yl)-5H-pyrrolo[2,3-d]pyrimidin-6(7H)-one] | 112%
CCCCc1nc(-c2nc(N)c3c(n2)NC(=O)C3(c2ccc(C(F)(F)F)cn2)C2CC2)cn2ncnc12 (stereo not drawn) [Example 70A, 4-amino-2-(8-butyl-[1,2,4]triazolo[1,5-a]pyrazin-6-yl)-5-cyclopropyl-5-(5-(trifluoromethyl)pyridin-2-yl)-5H-pyrrolo[2,3-d]pyrimidin-6(7H)-one] | 133%
